In patent US5244883A, “Nonapeptide bombesin antagonists” (The Administrators of the Tulane Educational Fund, priority 1990, dated 1993):
Where no end group is shown, it is not given here.

Tests used:
3T3 CELLS = type: cell-based, Murine; conditions: GRP 3 ng/ml alone, no antagonist; basal 207000 ± 4200
Description: (C) Inhibition of ^3 H-Thymidine incorporation by 3T3cells. SCLC cells were used 2 to 4 days after passage. Single cell suspensions were prepared by washing the cells (twice with PBS then pipetting them in PBS containing 0.2 g/liter glucose, 0.2 g/liter EDTA, and 14 mM lignocaine hydrochloride at 37° C. until the suspension appeared to be uniform (2-4 min). The cells were washed three times and resuspended in HITES without FCSB. Cultures were set up at 1.34×10^5 cells plated on day 0, all peptides added at same time in 1 ml. of RPMI-1640 medium plus HITES and 0.125% albumin. 48 hours later, 1 uc. of tritiated thymidine was added to each well and incubation continued for an additional 24 hours. Cells then were washed and deposited on glass filter paper and washed with ice cold 5% trichloro-acetic acid. Filter paper placed in vials containing scintillation fluid and counted for 1 minute. | 348,000 - 207,000 = 141,000 was taken as the stimulation

serum gastrin = experiment: Serum gastrin inhibition in vivo after GRP stimulation; conditions: rat, eight minutes after GRP 3 μg/100 g BW alone; control 16.7
Description: Bombesin analogs Peptides (5), (10) and (2) were tested in vivo on serum gastrin inhibition after GRP stimulation.

For “GRP: gastrin releasing peptide, peptide amide containing 27 amino-acid with bombesin-like properties; agonist stimulus (VPLPAGGGTVLTKMYPRGNHWAVGHLM-NH2; UniProt P07492 24-50, looked up)”, the “DPM ± S.E.” value (3T3 CELLS) was 348000 ± 15300 DPM and the serum gastrin level (serum gastrin) was 105 pg/mL.
